From ChEMBL document CHEMBL4004838, “Design and synthesis of novel phenyl -1, 4-beta-carboline-hybrid molecules as potential anticancer agents” (Eur J Med Chem, 2017) come the findings set out here.

What all share (type): functional
One test has as its system CAKI-1. The test can be described thus: Growth inhibition of human Caki1 cells assessed as cell growth at 10^-5 M incubated for 48 hrs by sulforhodamine B assay relative to control. The conditions noted are these: CAKI-1, 48 h, read-out: Activity. A general note: Sulforhodamine B stains cellular protein and so reports cell mass.
The test system of another test is Hs-578T. Description: Growth inhibition of human Hs 578T cells assessed as cell growth at 10^-5 M incubated for 48 hrs by sulforhodamine B assay relative to control. The settings on record: read-out: Activity.
A further test deals with KM12. Description: Growth inhibition of human KM12 cells assessed as cell growth at 10^-5 M incubated for 48 hrs by sulforhodamine B assay relative to control. The conditions noted are these: KM12, 48 h, read-out: Activity.
A further test concerns 786-0. Description: Growth inhibition of human 786-0 cells assessed as cell growth at 10^-5 M incubated for 48 hrs by sulforhodamine B assay relative to control. The conditions noted are these: 786-0, 48 h, read-out: Activity.
For another test, the system named is U-251. The test can be described thus: Growth inhibition of human U251 cells assessed as cell growth at 10^-5 M incubated for 48 hrs by sulforhodamine B assay relative to control. The settings on record: U-251, 48 h, read-out: Activity.
A further test relates to PC-3. The test can be described thus: Growth inhibition of human PC3 cells assessed as cell growth at 10^-5 M incubated for 48 hrs by sulforhodamine B assay relative to control. The settings on record: PC-3, 48 h, read-out: Activity.
The next test has as its system SF-268. The test can be described thus: Growth inhibition of human SF268 cells assessed as cell growth at 10^-5 M incubated for 48 hrs by sulforhodamine B assay relative to control. The settings on record: SF-268, 48 h, read-out: Activity.
Another test concerns NCI-H322M. Description: Growth inhibition of human NCI-H322M cells assessed as cell growth at 10^-5 M incubated for 48 hrs by sulforhodamine B assay relative to control. The conditions noted are these: read-out: Activity.
The subject of the next test is HCT-15. The test can be described thus: Growth inhibition of human HCT15 cells assessed as cell growth at 10^-5 M incubated for 48 hrs by sulforhodamine B assay relative to control. The conditions noted are these: HCT-15, 48 h, read-out: Activity.
The subject of a further test is HOP-92. The test can be described thus: Growth inhibition of human HOP92 cells assessed as cell growth at 10^-5 M incubated for 48 hrs by sulforhodamine B assay relative to control. The settings on record: HOP-92, 48 h, read-out: Activity.
For a further test, the system named is CCRF-CEM. The test can be described thus: Growth inhibition of human CCRF-CEM cells assessed as cell growth at 10^-5 M incubated for 48 hrs by sulforhodamine B assay relative to control. The conditions noted are these: read-out: Activity.
The next test concerns NCI-H23. The test can be described thus: Growth inhibition of human NCI-H23 cells assessed as cell growth at 10^-5 M incubated for 48 hrs by sulforhodamine B assay relative to control. The conditions noted are these: NCI-H23, 48 h, read-out: Activity.
In another test the test system is NCI-H460. Description: Growth inhibition of human NCI-H460 cells assessed as cell growth at 10^-5 M incubated for 48 hrs by sulforhodamine B assay relative to control. The conditions noted are these: NCI-H460, 48 h, read-out: Activity.
The test system of the next test is HCT-116. Description: Growth inhibition of human HCT116 cells assessed as cell growth at 10^-5 M incubated for 48 hrs by sulforhodamine B assay relative to control. The conditions noted are these: HCT-116, 48 h, read-out: Activity.
A further test has as its system HL-60(TB). Description: Growth inhibition of human HL-60(TB) cells assessed as cell growth at 10^-5 M incubated for 48 hrs by sulforhodamine B assay relative to control. The conditions noted are these: HL-60, 48 h, read-out: Activity.
In another test the test system is RPMI-8226. Description: Growth inhibition of human RPMI8226 cells assessed as cell growth at 10^-5 M incubated for 48 hrs by sulforhodamine B assay relative to control. The settings on record: RPMI-8226, 48 h, read-out: Activity.
The test system of a further test is SR. The test can be described thus: Growth inhibition of human SR cells assessed as cell growth at 10^-5 M incubated for 48 hrs by sulforhodamine B assay relative to control. The conditions noted are these: read-out: Activity.
The next test relates to K562. Description: Growth inhibition of human K562 cells assessed as cell growth at 10^-5 M incubated for 48 hrs by sulforhodamine B assay relative to control. The conditions noted are these: K562, 48 h, read-out: Activity.
A further test has as its system SK-MEL-2. Description: Growth inhibition of human SK-MEL-2 cells assessed as cell growth at 10^-5 M incubated for 48 hrs by sulforhodamine B assay relative to control. The settings on record: SK-MEL-2, 48 h, read-out: Activity.
The next test has as its system SF-295. Description: Growth inhibition of human SF295 cells assessed as cell growth at 10^-5 M incubated for 48 hrs by sulforhodamine B assay relative to control. The conditions noted are these: SF-295, 48 h, read-out: Activity.
The next test has as its system SW-620. Description: Growth inhibition of human SW620 cells assessed as cell growth at 10^-5 M incubated for 48 hrs by sulforhodamine B assay relative to control. The conditions noted are these: SW-620, 48 h, read-out: Activity.
In another test the test system is MCF7. The test can be described thus: Growth inhibition of human MCF7 cells assessed as cell growth at 10^-5 M incubated for 48 hrs by sulforhodamine B assay relative to control. The conditions noted are these: MCF7, 48 h, read-out: Activity.
The next test has as its system NCI-H226. Description: Growth inhibition of human NCI-H226 cells assessed as cell growth at 10^-5 M incubated for 48 hrs by sulforhodamine B assay relative to control. The settings on record: NCI-H226, 48 h, read-out: Activity.
The subject of another test is A549. Description: Growth inhibition of human A549/ATCC cells assessed as cell growth at 10^-5 M incubated for 48 hrs by sulforhodamine B assay relative to control. The settings on record: A549, 48 h, read-out: Activity.
The next test deals with M14. Description: Growth inhibition of human M14 cells assessed as cell growth at 10^-5 M incubated for 48 hrs by sulforhodamine B assay relative to control. The conditions noted are these: M14, 48 h, read-out: Activity.
For another test, the system named is Malme-3M. The test can be described thus: Growth inhibition of human MALME-3M cells assessed as cell growth at 10^-5 M incubated for 48 hrs by sulforhodamine B assay relative to control. The conditions noted are these: read-out: Activity.
A further test has as its system COLO 205. Description: Growth inhibition of human COLO205 cells assessed as cell growth at 10^-5 M incubated for 48 hrs by sulforhodamine B assay relative to control. The settings on record: COLO 205, 48 h, read-out: Activity.
Another test deals with A498. The test can be described thus: Growth inhibition of human A498 cells assessed as cell growth at 10^-5 M incubated for 48 hrs by sulforhodamine B assay relative to control. The conditions noted are these: A498, 48 h, read-out: Activity.
In a further test the test system is MDA-MB-435. Description: Growth inhibition of human MDA-MB-435 cells assessed as cell growth at 10^-5 M incubated for 48 hrs by sulforhodamine B assay relative to control. The settings on record: MDA-MB-435, 48 h, read-out: Activity.
In a further test the test system is NCI/ADR-RES. Description: Growth inhibition of human NCI-ADR-RES cells assessed as cell growth at 10^-5 M incubated for 48 hrs by sulforhodamine B assay relative to control. The settings on record: read-out: Activity.
For a further test, the system named is NCI-H522. The test can be described thus: Growth inhibition of human NCI-H522 cells assessed as cell growth at 10^-5 M incubated for 48 hrs by sulforhodamine B assay relative to control. The conditions noted are these: NCI-H522, 48 h, read-out: Activity.
A further test relates to HOP-62. Description: Growth inhibition of human HOP62 cells assessed as cell growth at 10^-5 M incubated for 48 hrs by sulforhodamine B assay relative to control. The settings on record: HOP-62, 48 h, read-out: Activity.

Turning to `c1ccc2c3c([nH]c2c1)C(c1ccc(C2NCCc4c2[nH]c2ccccc42)cc1)NCC3` (racemic), the growth at 10 µM with CAKI-1 was -51%.
With `Cc1ccc(S(=O)(=O)N2CCc3c([nH]c4ccccc34)C2c2ccc(C=O)cc2)cc1` (configuration not stated), the growth at 10 µM with Hs-578T was 89.2%; with KM12, 86.8%; in the test with 786-0, 99.6%; with U-251, 98%; in the test with PC-3, 84.2%; with SF-268 it was 91.3%. The growth at 10 µM was 87.7% with NCI-H322M; 94.3% in the test on HCT-15; 102% in the test with HOP-92; 106% in the test with CCRF-CEM; 85.7% in the test on NCI-H23; 93% in the test on NCI-H460. The growth at 10 µM with HCT-116 was 88.3%; in the test with HL-60(TB), 105%; in the test on RPMI-8226, 99.1%; in the test with SR, 97.2%; in the test with K562, 106%; in the test on SK-MEL-2, 81.6%. Also, the growth at 10 µM with SF-295 worked out at 91.9%; in the test with SW-620 it was 90.1%; in the test on MCF7, 92.4%; in the test with NCI-H226 it was 86.4%; with A549 it was 92.8%; in the test with CAKI-1, 73.5%. Moreover, the growth at 10 µM in the test with M14 was 85.8%; in the test on Malme-3M, 89.7%; with COLO 205, 92.1%; in the test on A498 it was 84.6%; in the test on MDA-MB-435, 93.4%; in the test with NCI/ADR-RES, 88.9%. Moreover, the growth at 10 µM with NCI-H522 is 60.3%; with HOP-62, 94.3%.
In the case of `Cc1ccc(S(=O)(=O)N2CCc3c([nH]c4ccccc34)C2c2ccc(-c3nc4ccccc4[nH]3)cc2)cc1` (configuration not stated), the growth at 10 µM in the test with Hs-578T was determined as 89.2%; in the test on KM12, 86.8%; in the test with 786-0, 99.6%; in the test with U-251, 98%; with PC-3 it was 84.2%; in the test on SF-268 it was 91.3%. The growth at 10 µM in the test with NCI-H322M was 87.7%; with HCT-15, 94.3%; in the test on HOP-92, 102%; with CCRF-CEM, 106%; with NCI-H23 it was 85.7%; in the test on NCI-H460 it was 93%. Further, the growth at 10 µM was determined as 88.3% with HCT-116; 105% in the test with HL-60(TB); 99.1% in the test with RPMI-8226; 97.2% in the test with SR; 106% in the test on K562; 81.6% in the test on SK-MEL-2. The growth at 10 µM was determined as 91.9% in the test with SF-295; 90.1% in the test on SW-620; 92.4% in the test with MCF7; 86.4% in the test with NCI-H226; 92.8% in the test with A549; 73.5% in the test with CAKI-1. Further, the growth at 10 µM was 85.8% in the test with M14; 89.7% in the test on Malme-3M; 92.1% in the test with COLO 205; 84.6% in the test on A498; 93.4% in the test on MDA-MB-435; 88.9% in the test on NCI/ADR-RES. The growth at 10 µM with NCI-H522 was found to be 60.3%; in the test on HOP-62, 94.3%.
Consider `c1ccc2[nH]c(-c3ccc(-c4nccc5c4[nH]c4ccccc45)cc3)nc2c1`, for which the growth at 10 µM is 19 to 76.6% in the test on KM12; 47 to 85.7% in the test with PC-3; 52.2% in the test with SF-268; 18 to 69.1% with NCI-H23; 42.9% with NCI-H460; 1 to 16.3% in the test with HCT-116. For the same molecule, the growth at 10 µM fell in the range of 17 to 30.4% in the test with MCF7; 21 to 45.7% in the test on A549; 58 to 68.7% in the test with A498; 10 to 62.6% in the test on NCI/ADR-RES; 2 to 86.1% in the test with HOP-62.
As to `c1ccc2c(c1)[nH]c1c(-c3ccc(-c4nccc5c4[nH]c4ccccc45)cc3)nccc12`, the growth at 10 µM with Hs-578T was determined as 97.7%; with KM12, 99.1%; with 786-0, 94.8%; in the test on U-251 it was 107%; in the test with PC-3, 84.2%; in the test with SF-268, 105%. Further, the growth at 10 µM with NCI-H322M is 104%; in the test with HCT-15 it was 99.7%; in the test on HOP-92 it was 98.7%; with CCRF-CEM, 106%; with NCI-H23 it was 77.7%; in the test with NCI-H460, 103%. Moreover, the growth at 10 µM stood at 88.2% in the test on HCT-116; 99.1% in the test on HL-60(TB); 97.4% with RPMI-8226; 86% in the test on SR; 93.8% in the test on K562; 95.6% in the test on SK-MEL-2. The growth at 10 µM in the test on SF-295 came out at 105%; in the test on SW-620, 108%; in the test on MCF7, 88.4%; in the test on NCI-H226, 90.7%; in the test on A549 it was 115%; in the test with M14 it was 99.3%. The growth at 10 µM is 92.5% in the test on Malme-3M; 92% in the test on COLO 205; 145% in the test with A498; 109% in the test on MDA-MB-435; 95.9% in the test with NCI/ADR-RES; 84.7% with NCI-H522. In addition, the growth at 10 µM in the test on HOP-62 worked out at 82.7%.
